Experimental data published in patent US11040028B2, “Penicinotam derivative, preparation method and use thereof” (OCEAN UNIVERSITY OF CHINA, priority 2017, dated 2021).

Columns and labels:
Assay type in all cases: cell-based
[1] = test system: human lung fibroblasts HFL1; experiment: Anti-fibrosis activity test: inhibition of proliferation of human lung fibroblasts HFL1 (CCK-8); conditions: Homo sapiens, HFL1, 48 h
Procedure, shortened: (§1)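 48 h compound treatment of fibroblast-type cells seeded at 2×10^4 cells/mL, 37° C, 5% CO2; viability by CCK-8 (2 h, A450). Inhibition rate calculated against blank control, IC50 by curve fitting; pirfenidone served as reference.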

[2] = test system: human fibrosarcoma cells HT-1080; experiment: Anti-fibrosis activity test: inhibition of proliferation of human fibrosarcoma cells HT-1080 (CCK-8); conditions: Homo sapiens, HT-1080, 48 h
Procedure, shortened: as §1

[3] = test system: human hepatic stellate cells LX-2; experiment: Anti-fibrosis activity test: inhibition of proliferation of human hepatic stellate cells LX-2 (CCK-8); conditions: Homo sapiens, 48 h
Procedure, shortened: as §1

[4] = test system: human embryonic lung fibroblast IMR-90; experiment: Anti-fibrosis activity test: inhibition of proliferation of human embryonic lung fibroblast IMR-90 (CCK-8)
Procedure, shortened: as §1

BHK-21 cells = experiment: Anti-fibrosis activity test: inhibition of BHK-21 cell proliferation (CCK-8); conditions: Mesocricetus auratus, BHK-21, 48 h
Procedure, shortened: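 BHK-21 cells seeded at 2×10^4 cells/mL, allowed to adhere 24 h at 37° C, 5% CO2, then exposed to compounds at graded concentrations in triplicate for 48 h. CCK-8 added for 2 h and absorbance read at 450 nm; inhibition rate taken as (1−Ai/Ao)×100% and IC50 fitted.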

[5] = test system: cardiac fibroblast RAT-iCell-C002; experiment: Anti-fibrosis activity test: inhibition of proliferation of cardiac fibroblast RAT-iCell-C002 (CCK-8); conditions: Cardiac fibroblast, 48 h
Procedure, shortened: as §1

[6] = test system: human dermal fibroblasts CCC-ESF-1; experiment: Anti-fibrosis activity test: inhibition of proliferation of human dermal fibroblasts CCC-ESF-1 (CCK-8); conditions: Fibroblast
Procedure, shortened: as §1

NF-κB = experiment: Immunological activity test: inhibition of NF-κB activity; conditions: initial concentration of 30 μM; a/b isomers given as first/second symbol; read-out: IC50 (μM), inhibitory activity against NF-κB
Description: Main references for immunological activity test of the compounds of the present application includes: Vogl, S.; Atanasov, A. G.; Binder, M.; Bulusu, M.; Zehl, M.; Fakhrudin, N.; Heiss, E. H.; Picker, P.; Wawrosch, C.; Saukel, J.; Reznicek, G.; Urban, E.; Bochkov, V.; Dirsch, V. M.; Kopp, B. J. Evid-Based Complementary Alern. Med. 2013, ID 395316. Commercially available parthenolide was utilized as a positive control.
The ability of the compounds of the present application to inhibit NF-κB activity was tested at an initial concentration of 30 μM.
The assay data for the compounds of the present application were further analyzed to determine their IC50 values.

[7] = test system: mouse macrophages (RAW264.7); experiment: Lipopolysaccharide-induced NO secretion in macrophages (Griess); conditions: Mus musculus, RAW264.7, 24 h, RAW264.7, LPS 1 μg/ml, a/b isomers given as first/second symbol, read-out: IC50 (μM), inhibition of lipopolysaccharide-induced NO secretion in macrophages
Procedure, shortened: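 RAW264.7 macrophages in DMEM with 10% FBS received test samples at several concentrations and were stimulated with 1 μg/ml LPS for 24 h. NO in the supernatant was measured with the Griess reagent at 548 nm, […].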

[8] = human lung fibroblasts HFL1, CCK-8, 48 hours
[9] = human fibrosarcoma cells HT-1080, CCK-8, 48 hours
[10] = human hepatic stellate cells LX-2, CCK-8, 48 hours
[11] = human embryonic lung fibroblast IMR-90, CCK-8, 48 hours
[12] = CCK-8, 48 hours after administration
[13] = cardiac fibroblast RAT-iCell-C002, CCK-8, 48 hours
[14] = human dermal fibroblasts CCC-ESF-1, CCK-8, 48 hours
[15] = Homo sapiens, IMR-90 cells, 48 h, CCK-8
[16] = Homo sapiens, CCC-ESF-1 cells, 48 h, CCK-8

Row | SMILES | IC50 [1, 8] | IC50 [2, 9] | IC50 [3, 10] | IC50 [4, 11] | IC50 (BHK-21 cells; [12]) | IC50 [5, 13] | IC50 [6, 14] | IC50 (NF-κB) | IC50 ([1]; HFL1 cells, 48 h, CCK-8) | IC50 ([2]; HT-1080 cells, 48 h, CCK-8) | IC50 ([3]; LX-2, 48 h, LX-2 cells, CCK-8) | IC50 [4, 15] | IC50 (BHK-21 cells; 48 h, CCK-8) | IC50 [7] | IC50 ([5]; RAT-iCell-C002 cells, CCK-8) | IC50 [6, 16]
1 | CC(C)n1c2c(c(=O)c3ccccc31)C(=O)n1cccc1-2 [Compound 5a, 4-Isopropyl-9H-pyrrolizino[1,2-b]quinoline-9,10(4H)-dione] | 0.05 to 5 mM | 5 to 20 mM | 0.05 to 5 mM | 0.05 to 5 mM | 5 to 20 mM | < 0.05 mM | 0.05 to 5 mM | 10 to 50 µM | – | – | – | – | – | – | – | –
2 | CC(C)Oc1c2c(nc3ccccc13)-c1cccn1C2=O [Compound 5b, 9-isopropoxy-10H-pyrrolizino[1,2-b]quinolin-10-one] | 0.05 to 5 mM | 5 to 20 mM | 5 to 20 mM | 0.05 to 5 mM | 0.05 to 5 mM | 0.05 to 5 mM | 0.05 to 5 mM | 10 to 50 µM | – | – | – | – | – | – | – | –
3 | CC(C)CCn1c2c(c(=O)c3ccccc31)C(=O)n1cccc1-2 [Compound 8a, 4-Isopentyl-9H-pyrrolizino[1,2-b]quinoline-9,10(4H)-dione] | 0.05 to 5 mM | 0.05 to 5 mM | 0.05 to 5 mM | 5 to 20 mM | 5 to 20 mM | 0.05 to 5 mM | 0.05 to 5 mM | 10 to 50 µM | – | – | – | – | – | – | – | –
4 | CC(C)CCOc1c2c(nc3ccccc13)-c1cccn1C2=O [Compound 8b, 9-(isopentyloxy)-10H-pyrrolizino[1,2-b]quinolin-10-one] | 0.05 to 5 mM | 0.05 to 5 mM | 0.05 to 5 mM | 0.05 to 5 mM | 0.05 to 5 mM | 0.05 to 5 mM | 0.05 to 5 mM | 10 to 50 µM | – | – | – | – | – | – | – | –
5 | CC(C)=CCn1c2c(c(=O)c3ccccc31)C(=O)n1cccc1-2 [Compound 9a, 4-(3-Methylbut-2-en-1-yl)-9H-pyrrolizino[1,2-b]quinoline-9,10(4H)-dione] | 0.05 to 5 mM | 0.05 to 5 mM | 0.05 to 5 mM | 0.05 to 5 mM | 20 to 100 mM | 0.05 to 5 mM | 5 to 20 mM | 1 to 10 µM | – | – | – | – | – | – | – | –
6 | O=C1c2c(n(Cc3ccc(F)cc3F)c3cc(N4CCNCC4)ccc3c2=O)-c2cccn21 [Compound 622a, 4-(2,4-Difluorobenzyl)-6-(piperazin-1-yl)-9H-pyrrolizino[1,2-b]quinoline-9,10(4H)-dione] | 0.05 to 5 mM | 0.05 to 5 mM | – | 0.05 to 5 mM | 0.05 to 5 mM | 0.05 to 5 mM | 0.05 to 5 mM | 1 to 10 µM | – | – | – | – | – | – | – | –
7 | O=C1c2c(nc3cc(N4CCNCC4)ccc3c2OCc2ccc(F)cc2F)-c2cccn21 [Compound 622b, 9-((2,4-difluorobenzyl)oxy)-6-(piperazin-1-yl)-10H-pyrrolizino[1,2-b]quinolin-10-one] | – | 0.05 to 5 mM | – | 0.05 to 5 mM | 0.05 to 5 mM | 0.05 to 5 mM | 0.05 to 5 mM | 1 to 10 µM | – | – | – | – | – | – | – | –
8 | O=C1c2c(nc3cc(N4CCNCC4)ccc3c2OCc2cc(C(F)(F)F)cc(C(F)(F)F)c2)-c2cccn21 [Compound 631b, 9-((3,5-bis(trifluoromethyl)benzyl)oxy)-6-(piperazin-1-yl)-10H-pyrrolizino[,2-b]quinolin-10-one] | – | – | – | – | – | – | – | 0.1 to 1 µM | – | – | – | – | – | – | – | –
9 | O=C1c2nc3ccccc3c(OCCCN3CCNCC3)c2-c2cccn21 [Compound 793b, 11-(3-(piperazin-1-yl)propoxy)-5H-pyrrolizino[2,1-b]quinolin-5-one] | – | – | – | – | – | – | – | – | 0.05 to 5 mM | 0.05 to 5 mM | 0.05 to 5 mM | 0.05 to 5 mM | 0.05 to 5 mM | 0.1 to 1 µM | 0.05 to 5 mM | 0.05 to 5 mM
10 | O=C1c2c(c(=O)c3ccccc3n2CCCCN2CCNCC2)-c2cccn21 [Compound 794a, 6-(4-(Piperazin-1-yl)butyl)-5H-pyrrolizino[2,1-b]quinoline-5,11(6H)-dione] | – | – | – | – | – | – | – | – | 0.05 to 5 mM | 0.05 to 5 mM | 0.05 to 5 mM | 0.05 to 5 mM | 0.05 to 5 mM | 1 to 10 µM | 0.05 to 5 mM | 0.05 to 5 mM
11 | O=C1c2nc3ccccc3c(OCCCCN3CCNCC3)c2-c2cccn21 [Compound 794b, 11-(4-(piperazin-1-yl)butoxy)-5H-pyrrolizino[2,1-b]quinolin-5-one] | – | – | – | – | – | – | – | – | 0.05 to 5 mM | 0.05 to 5 mM | 0.05 to 5 mM | 0.05 to 5 mM | 0.05 to 5 mM | 1 to 10 µM | 0.05 to 5 mM | 0.05 to 5 mM
12 | N#Cc1ccccc1-c1ccc(Cn2c3c(c(=O)c4ccccc42)-c2cccn2C3=O)cc1 [Compound 795a, 4′-((5,11-Dioxo-5,11-dihydro-6H-pyrrolizino[2,1-b]quinolin-6-yl)methyl)-[1,1′-biphenyl]-2-carbonitrile] | – | – | – | – | – | – | – | – | 0.05 to 5 mM | 0.05 to 5 mM | 0.05 to 5 mM | 0.05 to 5 mM | 0.05 to 5 mM | 1 to 10 µM | 0.05 to 5 mM | 0.05 to 5 mM
13 | N#Cc1ccccc1-c1ccc(COc2c3c(nc4ccccc24)C(=O)n2cccc2-3)cc1 [Compound 795b, 4′-(((5-oxo-5H-pyrrolizino[2,1-b]quinolin-11-yl)oxy)methyl)-[1,1′-biphenyl]-2-carbonitrile] | – | – | – | – | – | – | – | – | 0.05 to 5 mM | 0.05 to 5 mM | 0.05 to 5 mM | 0.05 to 5 mM | 0.05 to 5 mM | 1 to 10 µM | 0.05 to 5 mM | 0.05 to 5 mM
14 | O=C1c2c(c(=O)c3ccccc3n2Cc2ccc(-c3ccccc3)cc2)-c2cccn21 [Compound 796a, 6-([1,1′-Biphenyl]-4-ylmethyl)-5H-pyrrolizino[2,1-b]quinoline-5,11(6H)-dione] | – | – | – | – | – | – | – | – | 0.05 to 5 mM | 0.05 to 5 mM | 0.05 to 5 mM | 0.05 to 5 mM | 0.05 to 5 mM | 1 to 10 µM | 0.05 to 5 mM | 0.05 to 5 mM
15 | O=C1c2nc3ccccc3c(OCc3ccc(-c4ccccc4)cc3)c2-c2cccn21 [Compound 796b, 11-([1,1′-biphenyl]-4-ylmethoxy)-5H-pyrrolizino[2,1-b]quinolin-5-one] | – | – | – | – | – | – | – | – | 0.05 to 5 mM | 0.05 to 5 mM | 0.05 to 5 mM | 0.05 to 5 mM | 0.05 to 5 mM | 1 to 10 µM | 0.05 to 5 mM | 0.05 to 5 mM
